Drawing on patent US20150191469A1, “COMPOUNDS AND METHODS FOR TREATING HIV” (priority 2012, published 2015), this text covers IC50 for 26 compounds.

The test has as its system HIV. The test can be described thus: MT4 assay: antiviral HIV activity (cell protection, cell titer glo readout at 96 hours). It is filed as cell-based. Particulars: MT4 cells, cell titer glo readout at 96 hours, 10 point dose response, read-out: HIV MT4 Assay IC50. The protocol: Antiviral HIV activity and cytotoxicity values for compounds of the invention from Table 1 were measured in parallel in the HTLV-1 transformed cell line MT-4 based on the method previously described (Hazen et al., 2007, In vitro antiviral activity of the novel, tyrosyl-based human immunodeficiency virus (HIV) type 1 protease inhibitor brecanavir (GW640385) in combination with other antiretrovirals and against a panel of protease inhibitor-resistant HIV (Hazen et al., “In vitro antiviral activity of the novel, tyrosyl-based human immunodeficiency virus (HIV) type 1 protease inhibitor brecanavir (GW640385) in combination with other antiretrovirals and against a panel of protease inhibitor-resistant HIV”, Antimicrob. Agents Chemother. 2007, 51: 3147-3154; and Pauwels et al., “Sensitive and rapid assay on MT-4 cells for the detection of antiviral compounds against the AIDS virus”, J. of Virological Methods 1987, 16: 171-185).
Luciferase activity was measured 96 hours later by adding a cell titer glo (Promega, Madison, Wis.). Percent inhibition of cell protection data was plotted relative to no compound control. Under the same condition, cytotoxicity of the compounds was determined using cell titer Glo™ (Promega, Madison, Wis.). IC50s were determined from a 10 point dose response curve using 3-4-fold serial dilution for each compound, which spans a concentration range >1000 fold.
These values are plotted against the molar compound concentrations using the standard four parameter logistic equation:
y=((Vmax*x̂n)/(K̂n+x̂n))+Y2
Y2=minimum y n=slope factor
Vmax=maximum y x=compound concentration [M]

Setting [1] is: Human immunodeficiency virus 1, MT4, 96 h.

Structures are written as SMILES. Read-outs that look alike come from different tables or passages of the source.

For orientation: IC50 means the concentration that gives 50% inhibition. Turning to `Cc1nc2c(cc(-c3ccnc(N4CCN(C5CC5)CC4)c3)n2C)c(-c2cc(F)c3c(c2C)CCCO3)c1[C@H](OC(C)(C)C)C(=O)O` (atropisomer, axis not shown) [Example 118], under setting [1], the IC50 stood at 15 nM.

Consider `Cc1nc2c(cc(-c3nc(N4CCN5CCC[C@@H]5C4)ns3)n2C)c(-c2cc(F)c3c(c2C)CCCO3)c1[C@H](OC(C)(C)C)C(=O)O` [Example 381], for which the IC50 under setting [1] was 2.7 nM.

`Cc1nc2c(cc(-c3ccc4c(c3)N(C)CCO4)n2C)c(-c2cc(F)c3c(c2C)CCCO3)c1[C@H](OC(C)(C)C)C(=O)O` (atropisomer, axis not shown) [Example 135]: under setting [1], the IC50 was determined as 126 nM.

As to `CC(=O)N1CCCN(c2cc(-c3cc4c(-c5cc(F)c6c(c5C)CCCO6)c([C@H](OC(C)(C)C)C(=O)O)c(C)nc4n3C)ccn2)CC1` (atropisomer, axis not shown) [Example 95], under setting [1], the IC50 worked out at 52.4 nM.

Turning to `Cc1nc2c(cc(-c3ccnc(N4CCCN(C)CC4)c3)n2C)c(-c2cc(F)c3c(c2C)CCCO3)c1[C@H](OC(C)(C)C)C(=O)O` (atropisomer, axis not shown) [Example 94], under setting [1], the IC50 was 50.8 nM.

For the compound `Cc1nc2c(cc(C(=O)NC[C@H](C)c3ccccc3)n2C)c(-c2cc(F)c3c(c2C)CCCO3)c1[C@H](OC(C)(C)C)C(=O)O` [Example 214], the IC50 under setting [1] amounted to 44.6 nM.

With `Cc1nc2c(cc(-c3ccc(-c4ccc5c(cnn5C)c4)nc3)n2C)c(-c2cc(F)c3c(c2C)CCCO3)c1[C@H](OC(C)(C)C)C(=O)O` (atropisomer, axis not shown) [Example 18, (2S)-2-(tert-butoxy)-2-[4-(8-fluoro-5-methyl-3,4-dihydro-2H-1-benzopyran-6-yl)-1,6-dimethyl-2-[6-(1-methyl-1H-indazol-5-yl)pyridin-3-yl]-1H-pyrrolo[2,3-b]pyridin-5-yl]acetic acid], the IC50 under setting [1] came to 26.3 nM.

With `Cc1nc2c(cc(-c3ccnc(N4CCc5cc(-n6c(C)ccc6C)ccc5C4)c3)n2C)c(-c2cc(F)c3c(c2C)CCCO3)c1[C@H](OC(C)(C)C)C(=O)O` (atropisomer, axis not shown) [Example 106], the IC50 under setting [1] was found to be 45 nM.

In the case of `Cc1nc2c(cc(-c3ccnc(N4CCCN(C5COC5)CC4)c3)n2C)c(-c2ccc3c(c2)CCCO3)c1[C@H](OC(C)(C)C)C(=O)O` [Example 429], the IC50 under setting [1] amounted to 75 nM.

In the case of `Cc1nc2c(cc(-c3ccnc(-c4ccc5c(cnn5C)c4)c3)n2C)c(-c2cc(F)c3c(c2C)NCCO3)c1[C@H](OC(C)(C)C)C(=O)O` (atropisomer, axis not shown) [Example 3, (2S)-2-(tert-butoxy)-2-[4-(8-fluoro-5-methyl-3,4-dihydro-2H-1,4-benzoxazin-6-yl)-1,6-dimethyl-2-[2-(1-methyl-1H-indazol-5-yl)pyridin-4-yl]-1H-pyrrolo[2,3-b]pyridin-5-yl]acetic acid], the IC50 under setting [1] is 1.9 nM.

`Cc1nc2c(cc(-c3ccnc(NC4C[C@H]5CC[C@@H](C4)N5C)c3)n2C)c(-c2cc(F)c3c(c2C)CCCO3)c1[C@H](OC(C)(C)C)C(=O)O` (some centres unmarked) [Example 112]: the IC50 under setting [1] is 1330 nM.

Regarding `Cc1nc2c(cc(-c3nc(N4CCC(F)CC4)ns3)n2C)c(-c2cc(F)c3c(c2C)CCCO3)c1[C@H](OC(C)(C)C)C(=O)O` [Example 399], the IC50 under setting [1] was 28.7 nM.

In the case of `Cc1nc2c(cc(-c3nsc(-c4ccc5c(cnn5C)c4)n3)n2C)c(-c2cc(F)c3c(c2C)CCCO3)c1[C@H](OC(C)(C)C)C(=O)O` (atropisomer, axis not shown; (M)) [Example 357, (2S)(M)-2-(tert-butoxy)-2-(-4-(8-fluoro-5-methylchroman-6-yl)-1,6-dimethyl-2-(5-(1-methyl-1H-indazol-5-yl)-1,2,4-thiadiazol-3-yl)-1H-pyrrolo[2,3-b]pyridin-5-yl)acetic acid], the IC50 under setting [1] worked out at 4 nM.

`Cc1nc2c(cc(-c3ccnc(N4CCN(c5ncccn5)CC4)c3)n2C)c(-c2cc(F)c3c(c2C)CCCO3)c1[C@H](OC(C)(C)C)C(=O)O` (atropisomer, axis not shown) [Example 93]: the IC50 under setting [1] amounted to 23.9 nM.

`Cc1nc2c(cc(-c3ccnc(N4CCN(C)CC4)c3)n2C)c(-c2cc(F)c3c(c2C)CCCO3)c1[C@H](OC(C)(C)C)C(=O)O` (atropisomer, axis not shown) [Example 10, (2S)-2-(tert-butoxy)-2-[4-(8-fluoro-5-methyl-3,4-dihydro-2H-1-benzopyran-6-yl)-1,6-dimethyl-2-[2-(4-methylpiperazin-1-yl)pyridin-4-yl]-1H-pyrrolo[2,3-b]pyridin-5-yl]acetic acid]: the IC50 under setting [1] worked out at 30.3 nM.

Turning to `Cc1nc2c(cc(-c3nc(N4CCN(C5CCOCC5)CC4)ns3)n2C)c(-c2cc(F)c3c(c2C)CCCO3)c1[C@H](OC(C)(C)C)C(=O)O` (atropisomer, axis not shown; (M)) [Example 26, (2S)(M)-2-(tert-butoxy)-2-(4-(8-fluoro-5-methylchroman-6-yl)-1,6-dimethyl-2-(3-(4-(tetrahydro-2H-pyran-4-yl)piperazin-1-yl)-1,2,4-thiadiazol-5-yl)-1H-pyrrolo[2,3-b]pyridin-5-yl)acetic acid], the IC50 stood at 2.9 nM.

Turning to `Cc1nc2c(cc(-c3nnc(N4CCCCC4)o3)n2C)c(-c2cc(F)c3c(c2C)CCCO3)c1[C@H](OC(C)(C)C)C(=O)O` [Example 345], under setting [1], the IC50 was found to be 2.7 nM.

Take `Cc1nc2c(cc(CCC(=O)Nc3ccc4c(cnn4C)c3)n2C)c(-c2cc(F)c3c(c2C)CCCO3)c1[C@H](OC(C)(C)C)C(=O)O` [Example 298]: under setting [1], the IC50 came to 258 nM.

For the compound `Cc1nc2c(cc(C(=O)NCCN3CCOCC3)n2C)c(-c2cc(F)c3c(c2C)CCCO3)c1[C@H](OC(C)(C)C)C(=O)O` [Example 240], the IC50 under setting [1] amounted to 370 nM.

In the case of `Cc1nc2c(cc(-c3ccnc(-c4ccc5c(cnn5C)c4)c3)n2C)c(-c2ccc3c(c2C)CCCO3)c1[C@H](OC(C)(C)C)C(=O)O` (atropisomer, axis not shown; (M)) [Example 1, (2S)(M)-2-(tert-butoxy)-2-(1,6-dimethyl-2-(2-(1-methyl-1H-indazol-5-yl)pyridin-4-yl)-4-(5-methylchroman-6-yl)-1H-pyrrolo[2,3-b]pyridin-5-yl)acetic acid], the IC50 under setting [1] is 1.7 nM.

Consider `Cc1nc2c(cc(-c3ccnc(N4CCCN(C5COC5)CC4)c3)n2C)c(-c2cc(F)c3c(c2C)NCCO3)c1[C@H](OC(C)(C)C)C(=O)O` [Example 433], for which the IC50 under setting [1] is 127 nM.

`Cc1nc2c(cc(-c3nnc(N4CCN(CC5CC5)CC4)o3)n2C)c(-c2cc(F)c3c(c2C)CCCO3)c1[C@H](OC(C)(C)C)C(=O)O` [Example 337]: the IC50 under setting [1] was determined as 4.6 nM.

Regarding `Cc1nc2c(cc(C(=O)NCCN3CCCC3=O)n2C)c(-c2cc(F)c3c(c2C)CCCO3)c1[C@H](OC(C)(C)C)C(=O)O` [Example 248], the IC50 under setting [1] was determined as 3050 nM.

For `CCCCNC(=O)c1cc2c(-c3cc(F)c4c(c3C)CCCO4)c([C@H](OC(C)(C)C)C(=O)O)c(C)nc2n1C` [Example 239], under setting [1], the IC50 was 6.5 nM.

As to `Cc1nc2c(cc(CNC(=O)N3CCCN(C4COC4)CC3)n2C)c(-c2cc(F)c3c(c2C)CCCO3)c1[C@H](OC(C)(C)C)C(=O)O` [Example 168], the IC50 under setting [1] stood at 12600 nM.

For the compound `Cc1nc2c(cc(-c3ccnc(-c4cnc5c(cnn5C)c4)c3)n2C)c(-c2cc(F)c3c(c2C)CCCO3)c1[C@H](OC(C)(C)C)C(=O)O` (atropisomer, axis not shown) [Example 66], the IC50 under setting [1] worked out at 8.6 nM.
